≈ marks a conversion by molar mass, not a printed value.

Experiment [1] relates to Methicillin-susceptible Staphylococcus aureus (MSSA). As to the kind of experiment: MIC by agar dilution, MSSA clinical isolates. As to conditions: Staphylococcus aureus, MSSA. The experiment is classed as cell-based. From the text: (§1) A panel of multiple resistance Gram-positive and Gram-negative pathogens listed in Tables 1 and 2 was used to evaluate the antimicrobial activity of marinopyrrole derivatives (Chart 1) with vancomycin as a positive control. Except for those marked with WHO, all pathogens were isolated between 2008 and 2010 in hospitals located in Beijing; Guangzhou; Sichuan, Shandong and Jiangsu Province. Determination of the minimum inhibitory concentration (MIC) was done by the guidelines of the Clinical and Laboratory Standards Institute (Clinical and Laboratory Standards Institute, Performance standards for antimicrobial susceptibility testing, seventeenth informational supplement. 2007, 27, M100-S17). The susceptibility tests of a bacterial strain to a marinopyrrole derivative were performed by an agar dilution method. Briefly, each sterile petri dish contained a final volume of 15 mL comprising 1 mL of a marinopyrrole derivative and 14 mL of Mueller-Hinton broth. The concentrations of a marinopyrrole derivative are 128, 64, 32, 16, 8, 4, 2, 1, 0.5, 0.25, 0.125, 0.06, 0.03, 0.015 and 0.008 μg/mL. The petri dish containing the broth with different concentration of antibiotics was first inoculated with 10^5 CFU/mL (Denley A400, United Kingdom) and the culture was then incubated with shaking at 35-37° C. for 18-20 h. The potency of the compound was determined and expressed as minimum inhibitory concentration (MIC) in μg/mL. The MIC was determined as the lowest concentration of antibiotic that inhibited visible bacterial growth.

In experiment [2] the test system is Methicillin-resistant Staphylococcus aureus (MRSA). As to the kind of experiment: MIC by agar dilution, MRSA clinical isolates. The experiment is classed as cell-based. As to conditions: Staphylococcus aureus, MRSA.
From the text: as §1

In experiment [3] the test system is Methicillin-resistant Staphylococcus epidermidis (MRSE). As to the kind of experiment: MIC by agar dilution, MRSE clinical isolates. The format is cell-based. The note with it: Staphylococcus epidermidis, MRSE.
From the text: as §1
In general terms: In agar dilution, organisms are placed on agar that contains the substance at set levels.

Experiment [4] relates to Moderately vancomycin-resistant Enterococci faecium with the VanA gene (WHO-3). Kind of experiment: MIC by agar dilution, VRE (WHO-3). The experiment is classed as cell-based.
From the text: as §1

For experiment [5], the system named is Oxacillin-resistant Staphylococcus aureus (WHO-25). Kind of experiment: MIC by agar dilution, ORSA (WHO-25). The format is cell-based. The note with it: Staphylococcus aureus.
From the text: as §1

The test system of experiment [6] is Methicillin-resistant Staphylococcus aureus with the mec A gene and PBP2a (WHO-31). As to the kind of experiment: MIC by agar dilution, MRSA (WHO-31). The experiment is classed as cell-based.
From the text: as §1

For experiment [7], the system named is Highly vancomycin-resistant Enterococci faecalis (VRE). As to the kind of experiment: MIC by agar dilution, highly resistant VRE. The experiment is classed as cell-based.
From the text: as §1

Experiment [8] deals with K. penumonia. As to the kind of experiment: MIC by agar dilution, K. penumonia. The experiment is classed as cell-based, K. pneumonia. As to conditions: Klebsiella pneumoniae.
From the text: as §1

Experiment [9] deals with P. aeruginosa. As to the kind of experiment: MIC by agar dilution, P. aeruginosa. The format is cell-based. As to conditions: Pseudomonas aeruginosa.
From the text: as §1

Experiment [10] concerns E. coli. Kind of experiment: MIC by agar dilution, E. coli. The experiment is classed as cell-based. As to conditions: Escherichia coli.
From the text: as §1

In the case of `O=C(c1ccccc1O)c1[nH]c(Cl)c(Cl)c1-n1c(C(=O)c2ccccc2O)cc(Cl)c1Cl` [Compound 1, marinopyrrole A, reference compound], the MIC in [1] (Table 1, 10 isolates) is 0.5 to 1 µg/mL (≈ 0.98 to 1.96 µM); in experiment [1] (Table 2, data from 8 isolates), 0.5 µg/mL (≈ 0.98 µM); in experiment [1] (Table 3, data from 8 isolates) it was 0.5 µg/mL (≈ 0.98 µM); in experiment [2] (Table 1, 10 isolates), 1 µg/mL (≈ 1.96 µM); in experiment [2] (Table 2, data from 8 isolates), 0.5 to 1 µg/mL (≈ 0.98 to 1.96 µM); in experiment [2] (Table 3, data from 8 isolates), 0.5 to 1 µg/mL (≈ 0.98 to 1.96 µM). The MIC in experiment [3] (Table 1, 3 isolates) was 0.06 to 1 µg/mL (≈ 0.118 to 1.96 µM); in experiment [3] (Table 2, data from 4 isolates), 0.25 µg/mL (≈ 0.49 µM); in [3] (Table 3, data from 4 isolates) it was 0.25 µg/mL (≈ 0.49 µM); in experiment [4] (Enterococcus) it was 1 µg/mL (≈ 1.96 µM); in [4] (Enterococcus, VRE), 0.5 to 1 µg/mL (≈ 0.98 to 1.96 µM); in experiment [4] (Table 3, WHO-3) it was 1 µg/mL (≈ 1.96 µM). Further, the MIC was 1 µg/mL (≈ 1.96 µM) in experiment [5] (Table 1, ORSA (WHO-25), 1 isolate); 1 µg/mL (≈ 1.96 µM) in experiment [5] (Table 3, WHO-25); 1 µg/mL (≈ 1.96 µM) in experiment [5] (Table 2, WHO-25); 1 µg/mL (≈ 1.96 µM) in experiment [6] (Staphylococcus aureus); 1 µg/mL (≈ 1.96 µM) in experiment [6] (Staphylococcus aureus, MRSA); 1 µg/mL (≈ 1.96 µM) in [6] (Table 3, WHO-31). For the same molecule, the MIC in [7] was 16 to 128 µg/mL (≈ 31.4 to 251 µM); in [8] it was over 128 µg/mL; in experiment [9] it was over 128 µg/mL; in experiment [10] it was over 128 µg/mL.

By MIC is commonly meant the lowest concentration found to suppress growth.

The values are drawn from patent US9700044B2, “Symmetrical marinopyrrole derivatives as potential antibiotic agents” (priority 2013, dated 2017).
